US20210127673A1, “HERBICIDES” (SYNGENTA PARTICIPATIONS AG, priority 2016, published 2021)

How the values were obtained:
Assay type in all cases: in vivo
Conditions in all cases: 1000 g/ha, evaluated after 13 days
Lolium perenne (LOLPE) [1] = assay: Post-emergence herbicidal activity, Lolium perenne
In short: (§1)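 Pot-grown plants in standard soil were sprayed 8 days after sowing with active ingredient in acetone/water (50:50) containing 0.5% Tween 20. Glasshouse at 24/16 °C day/night, 14 h light, 65% humidity, watered twice daily. Damage scored after 13 days on 0 (none) to 5 (total) scale.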

Setaria faberi (SETFA) [2] = assay: Post-emergence herbicidal activity, Setaria faberi; parameters: key: 5=total damage to plant; 0=no damage to plant
In short: as §1

[3] = tested on: Echinochloa crus-galli (ECHCG); assay: Pre-emergence herbicidal activity, Echinochloa crus-galli
In short: (§2)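 Pots of seeds were sprayed one day after sowing (pre-emergence) with compound in acetone/water (50:50) plus 0.5% Tween 20, then grown in a glasshouse at 24/16 °C day/night, 14 h light, 65% humidity. Damage scored 0–5 (5 = total damage) after 13 days.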

[4] = tested on: Echinochloa crus-galli (ECHCG); assay: Post-emergence herbicidal activity, Echinochloa crus-galli; parameters: key: 5=total damage to plant; 0=no damage to plant
In short: as §1

Setaria faberi (SETFA) [5] = assay: Pre-emergence herbicidal activity, Setaria faberi
In short: as §2

Avena fatua (AVEFA) [6] = assay: Post-emergence herbicidal activity, Avena fatua
In short: as §1

Avena fatua (AVEFA) [7] = assay: Pre-emergence herbicidal activity, Avena fatua; parameters: key: 5=total damage to plant; 0=no damage to plant
In short: as §2

[8] = tested on: Triticum aestivium (TRZAW); assay: Pre-emergence herbicidal activity, Triticum aestivium; parameters: key: 5=total damage to plant; 0=no damage to plant
In short: as §2

[9] = tested on: Alopecurus myosuroides (ALOMY); assay: Post-emergence herbicidal activity, Alopecurus myosuroides; parameters: key: 5=total damage to plant; 0=no damage to plant
In short: as §1

[10] = tested on: Alopecurus myosuroides (ALOMY); assay: Pre-emergence herbicidal activity, Alopecurus myosuroides; parameters: key: 5=total damage to plant; 0=no damage to plant
In short: as §2

[11] = tested on: Triticum aestivium (TRZAW); assay: Post-emergence herbicidal activity, Triticum aestivium; parameters: key: 5=total damage to plant; 0=no damage to plant
In short: as §1

Lolium perenne (LOLPE) [12] = assay: Pre-emergence herbicidal activity, Lolium perenne; parameters: key: 5=total damage to plant; 0=no damage to plant
In short: as §2

SMILES	Control of LOLPE after post-emergence application (score 0-5) (Lolium perenne (LOLPE) [1])	Control of SETFA after post-emergence application (score 0-5) (Setaria faberi (SETFA) [2])	Control of ECHCG after pre-emergence application (score 0-5) [3]	Control of ECHCG after post-emergence application (score 0-5) [4]	Control of SETFA after pre-emergence application (score 0-5) (Setaria faberi (SETFA) [5])	Control of AVEFA after post-emergence application (score 0-5) (Avena fatua (AVEFA) [6])	Control of AVEFA after pre-emergence application (score 0-5) (Avena fatua (AVEFA) [7])	Control of TRAZW after pre-emergence application (score 0-5) [8]	Control of ALOMY after post-emergence application (score 0-5) [9]	Control of ALOMY after pre-emergence application (score 0-5) [10]	Control of TRAZW after post-emergence application (score 0-5) [11]	Control of LOLPE after pre-emergence application (score 0-5) (Lolium perenne (LOLPE) [12])
O=C(Nc1ccc(-c2cncc(F)c2)nc1C(F)(F)F)OCc1ccccc1 [Compound B53]	2	5	2	5	4	4	1	0	1	0	1	1
O=C(Nc1ccc(-c2cncc(F)c2)nc1C(F)(F)F)N1CCSCC1 [Compound B54]	3	4	3	4	3	4	2	0	1	0	1	1
O=C(Nc1ccc(-c2cncnc2)nc1C(F)(F)F)N1CCOCC1 [Compound B55]	1	4	1	3	1	2	1	0	0	0	0	0
CCC(C)OC(=O)Nc1ccc(-c2cncc(F)c2)nc1C(F)(F)F (stereo not drawn) [Compound B56]	3	4	1	4	2	3	1	0	0	0	0	0
O=C(Nc1ccc(-c2cncc(F)c2)nc1C(F)(F)F)OCC(F)(F)F [Compound B57]	2	3	2	4	3	3	1	0	0	0	0	1
CCCCOC(=O)Nc1ccc(-c2cncc(F)c2)nc1C(F)(F)F [Compound B58]	2	5	2	3	2	2	1	0	0	0	0	1
COCCOC(=O)Nc1ccc(-c2cncc(F)c2)nc1C(F)(F)F [Compound B59]	3	4	4	5	3	3	2	0	1	1	1	2
COCCNC(=O)Nc1ccc(-c2cncc(F)c2)nc1C(F)(F)F [Compound B60]	2	5	4	5	2	2	1	0	1	0	1	1
C#CCOC(=O)Nc1ccc(-c2cncc(F)c2)nc1C(F)(F)F [Compound B61]	2	4	3	4	2	2	2	0	1	1	0	1
N#CCCOC(=O)Nc1ccc(-c2cncc(F)c2)nc1C(F)(F)F [Compound B62]	2	4	3	5	3	3	2	0	0	1	0	1
O=C(Nc1ccc(-c2cncc(F)c2)nc1C(F)(F)F)N1CCCC1 [Compound B63]	2	3	2	5	2	2	0	0	0	1	0	0
O=C1NCCN1c1ccc(-c2cncc(F)c2)nc1C(F)(F)F [Compound B64]	1	4	1	4	2	3	0	0	0	0	0	0
